Data taken from patent USRE47739E1, “2-(pyridin-2-ylamino)-pyrido[2,3-D]pyrimidin-7-ones” (Warner-Lambert Company LLC, priority 2002, dated 2019).
Where a name gives a salt, the structure may show the parent alone.

Tests used:
Cdk2/Cyclin A = Cdk2/Cyclin A (Homo sapiens, UniProt P24941); assay: Assay for Inhibition of Cdk2/Cyclin A; assay type: biochemical; settings: 12 mM ATP (so in the source), retinoblastoma protein substrate, 25° C., 15 minutes
Description: (§1) The assays were carried out as described below.
Assay for Inhibition of Cdk2/Cyclin A
Cdk2 enzyme assays for IC50 determinations and kinetic evaluation are performed as follows. 96-well filter plates (Millipore MADVN6550) are used. […] All components except the ATP are added to the wells, and the plate is placed on a plate mixer for 2 minutes. The reaction is initiated by addition of [^32P]ATP, and the plate is incubated at 25° C. for 15 minutes. The reaction is terminated by addition of 0.1 mL 20% TCA. The plate is kept at 4° C. for at least 1 hour to allow the substrate to precipitate. The wells are then washed five times with 0.2 mL 10% TCA, and ^32P incorporation is determined with a beta plate counter (Wallac Inc., Gaithersburg, Md.).

[1] = biological target: FGF receptor (FGFr) tyrosine kinase (Homo sapiens, UniProt P11362); assay: Assay for Inhibition of FGFr; assay type: biochemical; settings: 50 μM ATP, Poly (4:1) glutamate-tyrosine substrate, 25° C.
Description: as §1
Assay for Inhibition of FGFr
For FGF receptor (FGFr) tyrosine kinase assays 96-well plates (100 μL/incubation/well), and conditions are optimized to measure the incorporation of ^32P from [γ^32P]ATP into a glutamate-tyrosine co-polymer substrate. Briefly, to each well is added 82.5 μL incubation buffer B (25 mM Hepes (pH 7.0), 150 mM NaCl, 0.1% Triton X-100, 0.2 mM PMSF, 0.2 mM Na3VO4, 10 mM MnCl2) and 750 μg/mL Poly (4:1) glutamate-tyrosine followed by 2.5 μL of the test compound in buffer B and 5 μL of a 7.5 μg/μL FGFr solution to initiate the reaction. Following a 10-minute incubation at 25° C., […] [γ^32P]ATP (0.4 μCi plus 50 μM ATP) is added to each well, and samples are incubated for an additional 10 minutes at 25° C. The reaction is terminated by the addition of 100 μL 30% trichloroacetic acid (TCA) containing 20 mM sodium pyrophosphate and precipitation of material onto glass fiber mats (Wallac). […] Nonspecific activity is defined as radioactivity retained on the filters following incubation of samples with buffer alone (no enzyme). Specific enzymatic activity (enzyme plus buffer) is defined as total activity minus nonspecific activity.

Cdk4/Cyclin D = Cdk4/Cyclin D (Homo sapiens, UniProt P11802); assay: Assay for Inhibition of Cdk4/Cyclin D; assay type: biochemical; settings: 25 μM ATP, retinoblastoma protein substrate, 25° C., 15 minutes
Description: as §1
Assay for Inhibition of Cdk4/Cyclin D
The Cdk4 enzyme assay for IC50 determination and kinetic evaluation is performed as follows. 96-well filter plates (Millipore MADVN6550) are used. […] Buffer A containing excess EDTA was used to determine the level of background ^32P in the absence of enzyme activity. All components except the ATP are added to the wells, and the plate is placed on a plate mixer for 2 minutes. The reaction is started by adding [^32P]ATP, and the plate is incubated at 25° C. for 15 minutes. The reaction is terminated by addition of 0.1 mL 20% trichloroacetic acid (TCA). The plate is kept at 4° C. for at least 1 hour to allow the substrate to precipitate. The wells are then washed five times with 0.2 mL 10% TCA, and ^32P incorporation is determined with a beta plate counter (Wallac Inc., Gaithersburg, Md.).

Chain of Cdk4/Cyclin D (P11802 whole entry, species assumed): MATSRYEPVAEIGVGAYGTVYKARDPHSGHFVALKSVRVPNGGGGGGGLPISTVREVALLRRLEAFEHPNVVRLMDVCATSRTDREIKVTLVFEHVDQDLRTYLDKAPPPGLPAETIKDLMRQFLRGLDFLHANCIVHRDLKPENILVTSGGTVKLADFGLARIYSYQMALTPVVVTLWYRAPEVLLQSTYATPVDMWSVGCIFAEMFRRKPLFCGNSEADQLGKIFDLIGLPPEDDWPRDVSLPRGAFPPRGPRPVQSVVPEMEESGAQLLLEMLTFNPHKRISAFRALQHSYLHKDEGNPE
Chain of Cdk4/Cyclin D (P24385 whole entry partner, species assumed): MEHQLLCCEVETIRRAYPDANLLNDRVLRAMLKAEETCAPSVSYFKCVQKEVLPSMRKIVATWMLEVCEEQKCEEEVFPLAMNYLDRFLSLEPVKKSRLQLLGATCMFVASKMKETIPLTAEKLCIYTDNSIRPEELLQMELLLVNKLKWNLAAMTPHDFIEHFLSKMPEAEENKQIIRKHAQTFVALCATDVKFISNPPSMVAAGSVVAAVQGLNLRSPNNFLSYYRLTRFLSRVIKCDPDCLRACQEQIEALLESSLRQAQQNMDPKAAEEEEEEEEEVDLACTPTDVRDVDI
Chain of FGF receptor (FGFr) tyrosine kinase (P11362 22-822): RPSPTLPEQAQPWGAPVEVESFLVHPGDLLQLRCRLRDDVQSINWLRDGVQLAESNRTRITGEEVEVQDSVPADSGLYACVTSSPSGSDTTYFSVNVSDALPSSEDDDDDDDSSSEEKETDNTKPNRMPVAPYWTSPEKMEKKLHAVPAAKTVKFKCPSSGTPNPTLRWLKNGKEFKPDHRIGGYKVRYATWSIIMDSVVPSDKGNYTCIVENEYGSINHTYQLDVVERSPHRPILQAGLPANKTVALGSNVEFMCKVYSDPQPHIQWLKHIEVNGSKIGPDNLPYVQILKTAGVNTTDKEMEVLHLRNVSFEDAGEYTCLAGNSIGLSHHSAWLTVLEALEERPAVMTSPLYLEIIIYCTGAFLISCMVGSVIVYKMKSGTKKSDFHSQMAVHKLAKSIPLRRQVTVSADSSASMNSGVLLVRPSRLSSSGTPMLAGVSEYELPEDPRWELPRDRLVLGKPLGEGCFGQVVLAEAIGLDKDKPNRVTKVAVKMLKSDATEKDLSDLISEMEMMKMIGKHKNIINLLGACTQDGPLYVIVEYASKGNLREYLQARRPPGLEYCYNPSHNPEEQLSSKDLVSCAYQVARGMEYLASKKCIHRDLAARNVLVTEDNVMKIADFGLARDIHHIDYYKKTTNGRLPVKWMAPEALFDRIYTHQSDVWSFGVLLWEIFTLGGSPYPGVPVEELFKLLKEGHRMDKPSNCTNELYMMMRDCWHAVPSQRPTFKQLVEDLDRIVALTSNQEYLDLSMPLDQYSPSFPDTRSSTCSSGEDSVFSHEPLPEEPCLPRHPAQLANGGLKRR

| Compound | IC50 (Cdk2/Cyclin A) | IC50 [1] | IC50 (Cdk4/Cyclin D) | melting point |
| --- | --- | --- | --- | --- |
| Cc1c(Br)c(=O)n(C2CCCC2)c2nc(Nc3cccc(N)n3)ncc12 [Example 66, 2-(6-amino-pyridin-2-ylamino)-6-bromo-8-cyclopentyl-5-methyl-8H-pyrido[2,3-d]pyrimidin-7-one] | > 5000 nM | – | 763 nM | – |
| Cc1cc2cnc(Nc3ccc(N4CCNCC4)cn3)nc2n(C2CCCC2)c1=O [Example 20, 8-Cyclopentyl-6-methyl-2-(5-piperazin-1-yl-pyridin-2-ylamino)-8H-pyrido[2,3-d]pyrimidin-7-one hydrochloride] | 4050 nM | 1600 nM | 27 nM | – |
| O=c1ccc2cnc(Nc3ccccc3)nc2n1C1CCCC1 [1′, reference compound] | 21 nM | – | – | – |
| O=c1c(Cc2ccccc2)cc2cnc(Nc3ccc(N4CCNCC4)cn3)nc2n1C1CCCC1 [Example 24, 6-Benzyl-8-cyclopentyl-2-(5-piperazin-1-yl-pyridin-2-ylamino)-8H-pyrido[2,3-d]pyrimidin-7-one hydrochloride] | > 5000 nM | > 5000 nM | 5 nM | – |
| O=c1c(Br)cc2cnc(Nc3ccc(N4CCNCC4)cn3)nc2n1C1CCCC1 [Example 3, 6-Bromo-8-cyclopentyl-2-(5-piperazin-1-yl-pyridin-2-ylamino)-8H-pyrido [2,3-d]pyrimidin-7-one hydrochloride] | 6050 nM | 1030 nM | 16 nM | – |
| O=c1c(CO)cc2cnc(Nc3ccc(N4CCNCC4)cn3)nc2n1C1CCCC1 [Example 29, 8-Cyclopentyl-6-hydroxymethyl-2-(5-piperazin-1-yl-pyridin-2-ylamino)-8H-pyrido[2,3-d]pyrimidin-7-one hydrochloride] | – | 4380 nM | 13 nM | – |
| Nc1cc2cnc(Nc3ccc(N4CCNCC4)cn3)nc2n(C2CCCC2)c1=O [Example 11, 6-Amino-8-cyclopentyl-2-(5-piperazin-1-yl-pyridin-2-ylamino)-8H-pyrido[2,3-d]pyrimidin-7-one hydrochloride] | – | 2120 nM | 12 nM | – |
| Cc1c(Br)c(=O)n(C2CCCC2)c2nc(Nc3ccccn3)ncc12 [Example 37, 6-bromo-8-cyclopentyl-5-methyl-2-(pyridin-2-ylamino)-8H-pyrido[2,3-d]pyrimidin-7-one] | – | > 5000 nM | > 5000 nM | 267 to 268 °C |
| 8-Cyclopentyl-6-methoxymethyl-2-(5-piperazin-1-yl-pyridin-2-ylamino)-8H-pyrido[2,3-d]pyrimidin-7-one [Example 120] | 3800 nM | 2470 nM | 13 nM | – |
| O=c1c(Br)cc2cnc(Nc3ccccn3)nc2n1C1CCCC1 [Example 38, 6-Bromo-8-cyclopentyl-2-(Pyridin-2-ylamino)-8H-pyrido[2,3-]pyrimidin-7-one] | – | > 5000 nM | 950 nM | – |
| CCc1cc2cnc(Nc3ccc(N4CCNCC4)cn3)nc2n(C2CCCC2)c1=O [Example 5, 8-Cyclopentyl-6-ethyl-2-(5-piperazin-1-yl-pyridin-2-ylamino)-8H-pyrido[2,3-d]pyrimidin-7-one hydrochloride] | – | 990 nM | 19 nM | – |
| CC(=O)c1c(C)c2cnc(Nc3ccc(N4CCC(N)C4)cn3)nc2n(C2CCCC2)c1=O (centres unmarked) [Example 74, 6-Acetyl-2-[5-(3-amino-pyrrolidin-1-yl)-pyridin-2-ylamino]-8-cyclopentyl-5-methyl-8H-pyrido[2,3-d]pyrimidin-7-one] | – | > 5000 nM | 14 nM | – |
| CC(=O)c1c(C)c2cnc(Nc3ccccn3)nc2n(C2CCCC2)c1=O [Example 82, 6-Acetyl-8-cyclopentyl-5-methyl-2-(pyridin-2-ylamino)-8H-pyrido[2,3-d]pyrimindin-7-one] | – | > 5000 nM | 440 nM | – |

Next, values leading:

| IC50 (Cdk2/Cyclin A) | IC50 [1] | IC50 (Cdk4/Cyclin D) | melting point | Compound |
| --- | --- | --- | --- | --- |
| 835 nM | 1380 nM | 13 nM | – | O=c1ccc2cnc(Nc3ccc(N4CCNCC4)cn3)nc2n1C1CCCCC1 [Example 61, 8-cyclohexyl-2-(5-piperazin-1-yl-pyridin-2-ylamino)-8H-pyrido[2,3-d]pyrimidin-7-one] |
| > 5000 nM | – | 135 nM | – | CCc1cc2cnc(Nc3ccc(N4CCC(O)CC4)cn3)nc2n(C2CCCC2)c1=O [Example 51, 8-Cyclopentyl-6-ethyl-2-(4-hydroxy-3,4,5,6-tetrahydro-2H-[1,3′]bipyridinyl-6′-ylamino)-8H-pyrido [2,3-d]pyrimidin-7-one] |
| 2500 nM | 1520 nM | 15 nM | – | O=c1ccc2cnc(Nc3ccc(N4CCNCC4)cn3)nc2n1C1CCCC1 [Example 59, 8-cyclopentyl-2-(5-piperazin-1-yl-pyridin-2-ylamino)-8H-pyrido[2,3-d]pyrimidin-7-one] |
| 5010 nM | > 5000 nM | 145 nM | – | O=c1ccc2cnc(Nc3ccccn3)nc2n1C1CCCC1 [Example 1, 8-Cyclopentyl-2-(pyridin-2-ylamino)-8H-pyrido[2,3-d]pyrimidin-7-one] |
| – | > 5000 nM | 135 nM | 278 to 280 °C (dec.) | Cc1c(Br)c(=O)n(C2CCCC2)c2nc(Nc3ccc(N4CCN(C)CC4)cn3)ncc12 [Example 70, 6-Bromo-8-cyclopentyl-5-methyl-2-[5-(4-methyl-piperazin-1-yl)-pyridin-2-ylamino]-8H-pyrido[2,3-d]pyrimidin-7-one] |
| > 5000 nM | – | 545 nM | – | CCOCc1cc2cnc(Nc3ccc(N4CCCCC4)cn3)nc2n(C2CCCC2)c1=O [Example 124, 8-Cyclopentyl-6-ethoxymethyl-2-(3,4,5,6-tetrahydro-2H-[1,3]bipyridinyl-6′-ylamino)-8H-pyrido[2,3-d]pyrimidin-7-one] |
| – | > 5000 nM | 124 nM | – | CCOCCc1cc2cnc(Nc3ccc(N4CCNCC4)cn3)nc2n(C2CCCC2)c1=O [Example 108, 8-Cyclopentyl-6-(2-ethoxy-ethyl)-2-(5-piperazin-1-yl-pyridin-2-ylamino)-8H-pyrido[2,3-d]pyrimidin-7-one] |
| > 5000 nM | > 5000 nM | 18 nM | – | CCOCc1cc2cnc(Nc3ccc(N4CCOCC4)cn3)nc2n(C2CCCC2)c1=O [Example 125, 8-Cyclopentyl-6-ethoxymethyl-2-(5-morpholin-4-yl-pyridin-2-ylamino)-8H-pyrido[2,3-d]pyrimidin-7-one] |
| – | – | – | 228 to 230 °C | O=c1ccc2cnc(Nc3ccc(N4CCNCC4)cn3)nc2n1C1CCCCC1 (as salt: hydrochloride) [Example 61, 8-cyclohexyl-2-(5-piperazin-1-yl-pyridin-2-ylamino)-8H-pyrido[2,3-d]pyrimidin-7-one] |
| – | > 5000 nM | 580 nM | – | Cc1cc(=O)n(C2CCCC2)c2nc(Nc3ccc(N4CCNCC4)cn3)ncc12 [Example 84, 8-Cyclopentyl-5-methyl-2-(5-piperazin-4-yl-pyridin-2-ylamino)-8H-pyrido[2,3-d]pyrimidin-7-one] |
| – | > 5000 nM | > 5000 nM | – | CC(C)n1c(=O)ccc2cnc(Nc3ccc(N4CCNCC4)cn3)nc21 [Example 57, 8-isopropyl-2-(5-piperazin-1-yl-pyridin-2-ylamino)-8H-pyrido[2.3-d]pyrimidin-7-one] |
| – | – | – | > 300 °C | O=c1ccc2cnc(Nc3ccc(N4CCNCC4)cn3)nc2n1C1CC1 (as salt: hydrochloride) [Example 64, 8-cyclopropyl-2-(5-piperazin-1-yl-pyridin-2-ylamino)-8H-pyrido[2,3-d]pyrimidin-7-one] |
| – | – | – | > 300 °C | CC(=O)c1cc2cnc(Nc3ccc(N4CCNCC4)cn3)nc2n(C2CCCC2)c1=O (as salt: hydrochloride) [Example 33, 6-Acetyl-8-cyclopentyl-2-(5-piperazin-1-yl-pyridin-2-ylamino)-8H-pyrido[2.3-d]pyrimidin-7-one hydrochloride] |
| – | – | – | 213 to 215 °C | O=c1ccc2cnc(Nc3ccc(N4CCNCC4)cn3)nc2n1C1CCCC1 (as salt: hydrochloride) [Example 59, 8-cyclopentyl-2-(5-piperazin-1-yl-pyridin-2-ylamino)-8H-pyrido[2,3-d]pyrimidin-7-one] |
